Laboratory results reported in paper PMC5895803, “Inhibition of cancer stem cell like cells by a synthetic retinoid” (Nature Communications, 2018).
Several values for one entry are separate records, joined by “and”; a condition that tells them apart may be missing. Identical values can stand only once.

Columns and labels:
[1] = system: B16-F1 TRCs; assay: Colony growth of B16-F1 TRCs in 90-Pa 3D soft fibrin gels; assay type: cell-based, murine; settings: 10 µM added day 3, washed out day 4, 3 days after washout
[2] = system: B16-F1 TRCs lung metastases; assay: Lung metastasis of B16-F1 TRCs in immune-competent mice; assay type: in vivo, C57BL/6 mice; settings: for Metastases in H&E-stained organ sections: 0.022 mg kg-1; for Mice with lung metastases: 8 mice per group, day 30
Source text: Four- to six-week-old female and male C57BL/6 mice were used in mice experiment. Mice were randomized into different groups. In metastasis experiment, B16-F1 cell spheroids were selected from 3D 90-Pa fibrin gels and pipetted to single cells. These TRCs were harvested and the cell number was counted under microscopy. The cells were then suspended in PBS with appropriate cell density. Thirty thousand TRCs were intravenously injected into the tail vein of each wild-type C57BL/6 mouse. Five days later, inoculated mice were intravenous implanted with 0.022 mg kg^−1 WYC-209, 0.22 mg kg^−1 WYC-209, or 0.1% DMSO every two days. The mice were euthanized and examined for lung tumor formation at day 30. In treated TRCs injected in vivo experiments, B16-F1 cells were seeded into 3D 90-Pa fibrin gels and treated with 10 µM WYC-209 or 0.1% DMSO on day 3, then isolated treated TRCs colonies on day 5 and pipetted into single cell. 30,000 of TRCs were intravenously injected into the tail vein of each wild-type C57BL/6 mouse. No blinding was performed in the mice experiments.
Lung, liver, spleen, bone, stomach, and brain of C57BL/6 mice were fixed by 4% paraformaldehyde then were embedded in paraffin and cut to ~4 µm thick sections by Thermo FINESSE 325. Organ sections were stained by H&E and slides were evaluated for tumor formation by a veterinary pathologist blinded to sample identity.

[3] = system: B16-F1 TRCs; assay: Cell cycle analysis (BrdU flow cytometry), S phase of TRCs; assay type: cell-based, murine; settings: 10 μM, 24 hours
Experimental: For Annexin-V and PI staining to quantify cell apoptosis, treated TRCs were isolated from 3D fibrin gel by using 5 mg mL^−1 Dispase II (Sigma), cells were labeled with FITC-conjugated Annexin-V and PI according to the manufacturer’s instruction (Biolegend). Data were acquired on a BD Cantoll (BD biosciences) and analyzed with FlowJo software. For BrdU staining to quantify cell proliferation, cells were labeled with FITC-conjugated anti-BrdU antibody according to the manufacturer’s instruction (FITC BrdU Flow Kit, BD Biosciences) and then data were acquired on an Accuri C6 (BD Biosciences) and analyzed with BD Accuri C6 software.
Supplementary Figure 13. WYC-209 blocks S phase of TRCs. Different cancer cell lines cultured in 3D soft fibrin gel on day 0, then treated with 0.1, 1, or 10 μM WYC-209, WYC-209A, WYC-209B on day 4, isolated cells after 24 hours and labeled with FITC-conjugated anti-BrdU antibody for cell cycle analysis, 10 μM ATRA and Tazarotne as positive controls. (a) Representative images of flow cytometry in different conditions. (b) Quantification of S phase ratio in different conditions. Mean ± s.e.m.; n=3 independent experiments; * P<0.05; ** P<0.01; *** P<0.001 (Student’s t-test).
(§1) (1 picture or pasted object on this page, not shown here)

[4] = system: cleaved (active) caspase-3 and PARP; assay: Western blotting of cleaved caspase-3 and PARP; assay type: cell-based, murine; settings: 10 μM, 24 h
Source text: To quantify the expression levels of RARα, RARβ, RARγ, caspase-3, cleaved caspase-3, and cleaved PARP, cells were lysed with RIPA lysis buffer. […] Primary antibodies were detected with mouse anti-Rabbit IgG-HRP (1:1000, Santa Cruz, sc-2357), donkey anti-goat IgG-HRP (1:1000, Santa Cruze, sc-2020), or anti-Mouse IgG-HRP (1:1000, Santa Cruz, sc-2005).
Supplementary Figure 37. WYC-209 induces cleaved caspase-3 and PARP expressions.
(a) Representative images of cleaved PARP and cleaved caspase-3 protein expressions in control B16-F1 cells cultured on 2D rigid dishes and treated 0.1% DMSO, 1 or 10 µM WYC-209, WYC-209A or WYC-209B for 24 h. (b) Representative images of cleaved PARP and cleaved caspase-3 protein expression of control B16-F1 cells seeded in 3D soft fibrin gels for […]
hours. (c, d) Quantification of expression levels of cleaved PARP and cleaved caspase-3 in (a). (e, f) Quantification of expression levels of cleaved PARP and cleaved caspase-3 in (b).
All values are normalized by GAPDH. Mean ± s.e.m.; 3 separate experiments; ns, not […]
as §1

[5] = system: unselected human cancer cells; assay: Unselected human cancer cells on 2D rigid dishes; assay type: cell-based; settings: 10 μM, 48 hours
Experimental: Supplementary Figure 20. WYC-209 detaches adherent human cancer cells on rigid plastic. (a-e): human melanoma MDA-MB-435s (a), human breast cancer MCF-7 (b), human ovarian cancer A2780 (c), human malignant melanoma A375 (d), and human lung cancer A549 (e) were cultured on rigid plastics and treated with 0.1, 1, or 10 μM WYC-209, WYC-209A, or WYC-209B and cell numbers were measured for 48 hours. Cell nuclei were stained with DAPI. None: medium only; DMSO: medium containing 0.1% DMSO. Cell numbers per view field were quantified. Mean ± s.e.m.; n= 5 samples; 3 separate experiments; *P<0.05; ** P<0.01; *** P<0.001 […]
as §1

[6] = system: B16-F1 TRCs; assay: Colony growth of B16-F1 TRCs in 90-Pa 3D soft fibrin gels; assay type: cell-based, murine; settings: for IC50 lower / potency higher than that of Tazarotene: B16-F1 TRC growth; for inhibition at 10 µM / IC50: Mus musculus; for inhibition at 10 µM: B16-F1, 10 μM, treated on day 0, day 5; for IC50: B16-F1 in 90-Pa fibrin gels, treated on day 0, colony size on day 5; for Growth after re-plating into new soft fibrin gels without compound: washed out
[7] = 0.022 mg kg−1 i.v. every two days from day 5 after 30,000 TRCs i.v.
[8] = 0.22 mg kg−1 i.v. every two days from day 5 after 30,000 TRCs i.v.
[9] = pretreated with 10 µM, at least 5 days

With `CCOC(=O)c1cnc(C#Cc2ccc3c(c2)C(C)(C)CC[S@+]3[O-])nc1` [WYC-209A] the “TRC growth after compound washout” value [1] was “failed to resume growing”, the “Metastases in H&E-stained organ sections” value [2] was “exhibited metastases in the lungs but not in other organs” and the “Mice with lung metastases” value [2, 7] was “three out of eight”. The “Mice with lung metastases” value [2, 8] was “one out of eight”, the “Decrease of S phase of TRCs” value [3] was “completely abolished S phase” and the “Cleaved (active) caspase-3 and PARP” value [4] was “increase”. The “Growth of unselected human cancer cells on 2D rigid dishes” value (shortened to “Growth of unselected human cancer cells”) [5] was “completely blocked cell growth”, the “IC50 lower / potency higher than that of Tazarotene” value [6] was “about 10 fold” and the inhibition at 10 µM [6] was 100%. For the same molecule, the IC50 [6] was 150 nM, the “Growth after re-plating into new soft fibrin gels without compound” value [6, 9] was “none of the cells grew at all” and the “Growth after re-plating into new soft fibrin gels without compound” value ([6]; pretreated with 0.1 or 1 μM) was “some tumor cell growth”.

With `CCOC(=O)c1cnc(C#Cc2ccc3c(c2)C(C)(C)CC[S@@+]3[O-])nc1` [WYC-209B] the “TRC growth after compound washout” value [1] was “failed to resume growing”, the “Metastases in H&E-stained organ sections” value [2] was “exhibited metastases in the lungs but not in other organs” and the “Mice with lung metastases” value [2, 7] was “three out of eight”. The “Mice with lung metastases” value [2, 8] was “one out of eight”, the “Decrease of S phase of TRCs” value [3] was “completely abolished S phase” and the “Cleaved (active) caspase-3 and PARP” value [4] was “increase”. For the same molecule, the “Growth of unselected human cancer cells” value [5] was “completely blocked cell growth”, the “IC50 lower / potency higher than that of Tazarotene” value [6] was “about 10 fold” and the inhibition at 10 µM [6] was 100%. The IC50 [6] was 220 nM, the “Growth after re-plating into new soft fibrin gels without compound” value [6, 9] was “none of the cells grew at all” and the “Growth after re-plating into new soft fibrin gels without compound” value ([6]; pretreated with 0.1 or 1 μM) was “some tumor cell growth”.

For `CCOC(=O)c1cnc(C#Cc2ccc3c(c2)C(C)(C)CC[S+]3[O-])nc1` (stereo not drawn) [WYC-209], the “TRC growth after compound washout” value [1] was “failed to resume growing”, the “Mice with lung metastases” value [2, 7] was “four out of eight and 4/8” and the “Average lung weight versus DMSO group” value ([2]; 0.22 mg kg−1) was “less”. For the same molecule, the “Lung metastases of melanoma TRCs abrogated” value ([2]; 0.22 mg kg−1) was 87.5%, the “Mice with lung metastases” value [2, 8] was “one out of eight and 1/8” and the “Lung metastases in untreated mice injected with pretreated TRCs” value ([2]; TRCs pretreated with 10 µM in fibrin gels day 3-5, 30,000 TRCs i.v., 8 mice) was “no lung metastases”. The “Decrease of S phase of TRCs” value [3] was “completely abolished S phase”, the “Cleaved (active) caspase-3 and PARP” value [4] was “increase” and the “Growth of unselected human cancer cells” value [5] was “completely blocked cell growth”. The “IC50 lower / potency higher than that of Tazarotene” value [6] was “about 10 fold”, the inhibition at 10 µM [6] was 100% and the IC50 [6] was 190 nM. The “Duration of effect after washout (long-lasting)” value ([6]; melanoma TRCs re-plated in fresh medium without compound) was over 5 days, the “Growth after re-plating into new soft fibrin gels without compound” value [6, 9] was “none of the cells grew at all” and the “Growth after re-plating into new soft fibrin gels without compound” value ([6]; pretreated with 0.1 or 1 μM) was “some tumor cell growth”.
